Measured values as given in patent US20140179681A1, “METHODS AND COMPOSITIONS OF TARGETED DRUG DEVELOPMENT” (priority 2010, published 2014).
Like-named read-outs stand apart in the source and are kept apart here.

Experiments:
EGFR = target: T1, EGFR (Homo sapiens, UniProt P00533); experiment: EGFR in-cell Western (ICW) screening protocol (EGFR inhibition assay); format: cell-based; parameters: ICW 1 / ICW 2 / ICW Avg: unit not given here; details: ICW assay; for ICW Avg: average of runs 1 and 2; for ICW 1: run 1; for ICW 2: run 2
T1 construct: host or cells: A431
Method in brief: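 In-cell Western read-out: fixed A431 cells were co-stained for total EGFR and phospho-EGFR (Tyr1173; some runs Tyr1045). Before fixation, cells were serum-starved for 2 h, exposed to compound for 4 h, then given EGF for 10 min, usually at 10 ng/ml final (6.6 or 12.5 ng/ml in some runs).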

[1] = tested on: epithelial carcinoma A431 cell line; experiment: MTT Cell Proliferation Assay, A431 cells; format: cell-based; details: for MTT Assay IC50(A431/MDBK): ratio in parentheses: ratio MDBK IC50 / A431 IC50 (selectivity); for MTT Follow-up: ratio in parentheses: ratio MDBK/A431
Method in brief: (§1)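 Each concentration ran in quadruplicate across duplicate plates, with compounds serially diluted in DMSO and delivered at 0.5% DMSO in 0.5% FBS medium for 3 days.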

MDBK line = experiment: MTT Cell Proliferation Assay, MDBK cells; format: cell-based, bovine; details: MDBK cells
Method in brief: as §1

[2] = Homo sapiens, A-431, A431 cells, first value of cell, read-out: MTT Assay IC50(A431/MDBK): A431
[3] = Bos taurus, MDBK, second value of cell, read-out: MTT Assay IC50(A431/MDBK): MDBK
[4] = second value of cell, read-out: MTT Assay IC50(A431/MDBK): MDBK
[5] = Homo sapiens, A-431, follow-up MTT, A431 cells, first value, read-out: MTT Follow-up: A431
[6] = Bos taurus, MDBK, follow-up MTT, second value, read-out: MTT Follow-up: MDBK
[7] = A431 cells, first value of cell, read-out: MTT Assay IC50(A431/MDBK): A431

T1 sequence (P00533 25-1210): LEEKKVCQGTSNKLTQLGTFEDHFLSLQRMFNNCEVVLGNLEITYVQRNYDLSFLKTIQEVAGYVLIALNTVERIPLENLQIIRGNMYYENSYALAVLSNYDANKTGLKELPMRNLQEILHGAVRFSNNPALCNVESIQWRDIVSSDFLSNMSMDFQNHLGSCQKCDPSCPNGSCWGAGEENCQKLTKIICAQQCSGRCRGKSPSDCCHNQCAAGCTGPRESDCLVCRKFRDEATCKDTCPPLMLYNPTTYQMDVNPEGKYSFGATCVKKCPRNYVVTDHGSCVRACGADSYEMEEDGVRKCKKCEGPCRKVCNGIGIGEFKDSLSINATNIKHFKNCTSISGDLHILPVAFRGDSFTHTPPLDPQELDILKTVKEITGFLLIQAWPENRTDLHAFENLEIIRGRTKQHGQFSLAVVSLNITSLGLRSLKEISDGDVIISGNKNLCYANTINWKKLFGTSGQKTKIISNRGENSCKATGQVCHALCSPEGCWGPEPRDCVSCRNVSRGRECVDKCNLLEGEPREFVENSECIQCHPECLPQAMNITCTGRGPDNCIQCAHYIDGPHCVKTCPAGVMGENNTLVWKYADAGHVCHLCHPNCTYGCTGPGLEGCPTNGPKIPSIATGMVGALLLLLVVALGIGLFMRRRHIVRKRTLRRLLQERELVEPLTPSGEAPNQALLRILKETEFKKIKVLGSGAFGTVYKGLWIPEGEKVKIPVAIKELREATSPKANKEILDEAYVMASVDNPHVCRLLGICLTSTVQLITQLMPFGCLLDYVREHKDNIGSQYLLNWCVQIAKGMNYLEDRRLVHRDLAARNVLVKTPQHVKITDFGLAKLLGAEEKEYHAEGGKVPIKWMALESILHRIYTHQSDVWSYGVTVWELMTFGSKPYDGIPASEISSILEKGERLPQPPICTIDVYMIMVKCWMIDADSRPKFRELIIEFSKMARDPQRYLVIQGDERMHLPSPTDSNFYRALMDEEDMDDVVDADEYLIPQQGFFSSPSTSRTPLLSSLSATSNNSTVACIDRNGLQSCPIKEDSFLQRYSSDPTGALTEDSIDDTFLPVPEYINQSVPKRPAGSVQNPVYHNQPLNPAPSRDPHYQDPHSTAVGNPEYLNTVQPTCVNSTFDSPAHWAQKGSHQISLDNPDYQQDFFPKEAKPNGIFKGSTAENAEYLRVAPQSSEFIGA

COC(=O)Cc1cc(=O)nc(Nc2nc(C)c3ccccc3n2)[nH]1 [compound 11609]
ICW Avg (EGFR): 27.23
ICW 1 (EGFR): 28.83
ICW 2 (EGFR): 25.63
IC50 [1, 2]: 36 µM
MTT Assay IC50(A431/MDBK): ratio in parentheses [1]: 0.68
IC50 (MDBK line; [3]): 24.3 µM

Cc1ccc2c(=O)nc(Nc3nc(C)cc(-c4ccccc4)n3)[nH]c2c1 [compound 11610]
ICW Avg (EGFR): 31.67
ICW 1 (EGFR): 22.50
ICW 2 (EGFR): 40.84
IC50 [1, 2]: 4.98 µM
IC50 (MDBK line; [3]): 17.4 µM

COc1ccc2nc(Nc3nc(CSc4ccc(C)cc4)cc(=O)[nH]3)nc(C)c2c1 [compound 11617]
ICW Avg (EGFR): 29.18
ICW 1 (EGFR): 27.71
ICW 2 (EGFR): 30.66
IC50 [1, 2]: 6.01 µM
MTT Assay IC50(A431/MDBK): ratio in parentheses [1]: 3.28
IC50 (MDBK line; [3]): 19.7 µM

Cc1nc(Nc2nc(=O)cc(-c3ccccc3)[nH]2)nc2c(C)cccc12 [compound 11624]
ICW Avg (EGFR): 26.08
ICW 1 (EGFR): 22.54
ICW 2 (EGFR): 29.61
IC50 [1, 2]: 14 µM
MTT Assay IC50(A431/MDBK): ratio in parentheses [1]: 1.59
IC50 (MDBK line; [3]): 22.4 µM

Cc1cc(C)nc(Nc2nc(-c3ccccc3)c3ccc(Cl)cc3n2)n1 [compound 11636]
ICW Avg (EGFR): 62.56
ICW 1 (EGFR): 61.28
ICW 2 (EGFR): 63.84
IC50 [1, 2]: 26.8 µM
IC50 (MDBK line; [4]): 14.7 µM

COc1cccc2c(C)nc(Nc3nc(-c4ccccc4)cc(=O)[nH]3)nc12 [compound 11741]
ICW Avg (EGFR): 68.05
ICW 1 (EGFR): 66.55
ICW 2 (EGFR): 69.55
IC50 [1, 2]: 2.44 µM
IC50 [1, 5]: 51.5 µM
MTT Follow-up: ratio in parentheses [1]: 1.01
IC50 (MDBK line; [3]): 2.44 µM
IC50 (MDBK line; [6]): 51.9 µM

Cc1ccc2nc(Nc3nc(CSc4ncccn4)cc(=O)[nH]3)nc(C)c2c1 [compound 11751]
ICW Avg (EGFR): 25.51
ICW 1 (EGFR): 25.87
ICW 2 (EGFR): 25.14
IC50 [1, 2]: 9.88 µM
MTT Assay IC50(A431/MDBK): ratio in parentheses [1]: 0.64
IC50 (MDBK line; [3]): 6.31 µM

CCOc1cccc2c(C)nc(Nc3nc(CSc4ccc(C)cc4)cc(=O)[nH]3)nc12 [compound 11755]
ICW Avg (EGFR): 37.09
ICW 1 (EGFR): 40.96
ICW 2 (EGFR): 33.21
MTT Assay IC50(A431/MDBK): A431 ([1]; A431 cells, first value of cell): non-convergent
IC50 [1, 5]: 14.1 µM
MTT Follow-up: ratio in parentheses [1]: 0.23
IC50 (MDBK line; [6]): 3.24 µM

COc1cccc2c(C)nc(Nc3nc(C(F)(F)F)cc(=O)[nH]3)nc12 [compound 11758]
ICW Avg (EGFR): 47.78
ICW 1 (EGFR): 53.63
ICW 2 (EGFR): 41.93
IC50 [1, 2]: 53.8 µM
IC50 (MDBK line; [3]): 576 µM

Cc1ccc2c(C)nc(Nc3nc4c(c(-c5ccccc5)n3)CCCC4)nc2c1 [compound 11777]
ICW Avg (EGFR): 25.87
ICW 1 (EGFR): 37.92
ICW 2 (EGFR): 13.81
IC50 [1, 2]: 6.6 µM
MTT Assay IC50(A431/MDBK): ratio in parentheses [1]: 1.62
IC50 (MDBK line; [3]): 10.7 µM

Cc1nc(Nc2nc(CCC(C)C)cc(=O)[nH]2)nc2ccccc12 [compound 11792]
ICW Avg (EGFR): 30.56
ICW 1 (EGFR): 28.62
ICW 2 (EGFR): 32.50
IC50 [1, 2]: 5.36 µM
MTT Assay IC50(A431/MDBK): ratio in parentheses [1]: 2.53
IC50 (MDBK line; [3]): 13.6 µM

CCOC(=O)c1c(N)nc(Nc2nc(C)c3cc(C)ccc3n2)nc1-c1ccccc1 [compound 11812]
ICW Avg (EGFR): 56.84
ICW 1 (EGFR): 51.90
ICW 2 (EGFR): 61.77
IC50 [1, 2]: 14.7 µM
IC50 (MDBK line; [3]): 31.6 µM

CCOC(=O)c1c(N)nc(Nc2nc(C)c3cc(C)c(C)cc3n2)nc1-c1ccccc1 [compound 11825]
ICW Avg (EGFR): 54.02
ICW 1 (EGFR): 52.17
ICW 2 (EGFR): 55.87
IC50 [1, 2]: 4.06 µM
IC50 (MDBK line; [3]): 17.9 µM

Cc1cc(C)nc(Nc2nc(N)c3ccccc3n2)n1 [compound 11829]
ICW Avg (EGFR): 65.68
ICW 1 (EGFR): 62.56
ICW 2 (EGFR): 68.79
IC50 [1, 2]: 19.6 µM
IC50 (MDBK line; [3]): 16.2 µM

CCc1ccc2nc(Nc3nc(C)c4c(n3)CCCC4)nc(C)c2c1 [compound 12213]
ICW Avg (EGFR): 28.01
ICW 1 (EGFR): 28.35
ICW 2 (EGFR): 27.66
IC50 [1, 2]: 39.1 µM
MTT Assay IC50(A431/MDBK): ratio in parentheses [1]: 0.99
IC50 (MDBK line; [3]): 38.6 µM

Cc1ccc2nc(Nc3nc4c(c(-c5ccccc5)n3)CCCC4)nc(C)c2c1 [compound 12227]
ICW Avg (EGFR): 27.27
ICW 1 (EGFR): 31.47
ICW 2 (EGFR): 23.08
IC50 [1, 2]: 16.4 µM
MTT Assay IC50(A431/MDBK): ratio in parentheses [1]: 1.04
IC50 (MDBK line; [3]): 17.1 µM

CCCc1c(-c2ccccc2)nc(Nc2nc(C)c3ccccc3n2)[nH]c1=O [compound 12609]
ICW Avg (EGFR): 41.04
ICW 1 (EGFR): 42.02
ICW 2 (EGFR): 40.07
IC50 [1, 2]: 11.2 µM
MTT Assay IC50(A431/MDBK): ratio in parentheses [1]: 2.10
IC50 (MDBK line; [3]): 23.5 µM

CCc1c(C)nc(Nc2nc(C)c3cccc(OC)c3n2)[nH]c1=O [compound 12613]
ICW Avg (EGFR): 52.18
ICW 1 (EGFR): 47.72
ICW 2 (EGFR): 56.65
IC50 [1, 7]: 17.6 µM
MTT Assay IC50(A431/MDBK): ratio in parentheses [1]: 0.65
IC50 (MDBK line; [4]): 11.5 µM

COc1cccc2c(C)nc(Nc3nc(C)c(C)c(=O)[nH]3)nc12 [compound 12615]
ICW Avg (EGFR): 29.24
ICW 1 (EGFR): 31.59
ICW 2 (EGFR): 26.88
IC50 [1, 2]: 5.12 µM
MTT Assay IC50(A431/MDBK): ratio in parentheses [1]: 1.16
IC50 (MDBK line; [3]): 5.93 µM

COc1cccc2c(C)nc(Nc3nc(-c4ccc(F)cc4)cc(=O)[nH]3)nc12 [compound 12620]
ICW Avg (EGFR): 33.01
ICW 1 (EGFR): 32.26
ICW 2 (EGFR): 33.77
IC50 [1, 7]: 5.17 µM
MTT Assay IC50(A431/MDBK): ratio in parentheses [1]: 1.03
IC50 (MDBK line; [4]): 5.3 µM

CCCc1c[nH]c(Nc2nc(C)c3ccccc3n2)nc1=O [compound 12622]
ICW Avg (EGFR): 26.32
ICW 1 (EGFR): 21.30
ICW 2 (EGFR): 31.34
IC50 [1, 2]: 20.8 µM
MTT Assay IC50(A431/MDBK): ratio in parentheses [1]: 0.55
IC50 (MDBK line; [3]): 11.5 µM

Cc1cc(C)nc(Nc2nc(-c3ccccc3)c3ccc(Cl)cc3n2)n1 [compound 12636]
ICW Avg (EGFR): 49.02
ICW 1 (EGFR): 49.55
ICW 2 (EGFR): 48.49
IC50 [1, 7]: 15.9 µM
MTT Assay IC50(A431/MDBK): ratio in parentheses [1]: 2.18
IC50 (MDBK line; [4]): 34.6 µM

CCCc1cc(=O)[nH]c(Nc2nc(C)c3ccc(C)cc3n2)n1 [compound 12655]
ICW Avg (EGFR): 31.68
ICW 1 (EGFR): 30.00
ICW 2 (EGFR): 33.36
IC50 [1, 7]: 11.6 µM
MTT Assay IC50(A431/MDBK): ratio in parentheses [1]: 0.68
IC50 (MDBK line; [4]): 7.89 µM

CCCc1c(C)[nH]c(Nc2nc(C)c3cc(C)ccc3n2)nc1=O [compound 12661]
ICW Avg (EGFR): 35.24
ICW 1 (EGFR): 29.34
ICW 2 (EGFR): 41.14
IC50 [1, 2]: 43.1 µM
MTT Assay IC50(A431/MDBK): ratio in parentheses [1]: 0.89
IC50 (MDBK line; [3]): 38.2 µM

CCCc1c(C)nc(Nc2nc(C)c3cc(C)ccc3n2)[nH]c1=O [compound 12667]
ICW Avg (EGFR): 31.86
ICW 1 (EGFR): 29.45
ICW 2 (EGFR): 34.27
IC50 [1, 2]: 36.1 µM
MTT Assay IC50(A431/MDBK): ratio in parentheses [1]: 0.54
IC50 (MDBK line; [3]): 19.6 µM

CCCc1cc(=O)[nH]c(Nc2nc(C)c3ccc(C)cc3n2)n1 [compound 12674]
ICW Avg (EGFR): 40.69
ICW 1 (EGFR): 29.69
ICW 2 (EGFR): 51.69
IC50 [1, 2]: 10.7 µM
MTT Assay IC50(A431/MDBK): ratio in parentheses [1]: 0.79
IC50 (MDBK line; [3]): 8.41 µM
